For orientation: IC50 means the concentration that inhibits the measured activity by half.

Drawing on PMC7904790 (Nature Communications, 2021), this text covers IC50 and CC50 for four molecules.

The subject of one series is T1, EML4-ALK WT.
T1 construct: EML4-ALK fusion, wild-type kinase domain, expressed in Ba/F3 cells
Nature of the series: cells. Details: CellTiter-Glo viability of Ba/F3 cells dependent on EML4-ALK, without IL-3. To be noted: Ba/F3 EML4-ALK, 72 h. Here is the method: To identify drugs that can overcome these mutations, we screened our focused 90-inhibitor library using Ba/F3 cells expressing EML4-ALK I1171N + F1174I and I1171N + L1198H. At a concentration of 50 nM, gilteritinib suppressed the viability of both wild-type (WT) and compound mutant Ba/F3 cells (Fig. 1a). Since gilteritinib has reported as multi-kinase inhibitor, we first evaluated whether the ALK inhibitory efficacy of gilteritinib is driven by on-target activity or not. As a result of western blot analysis, gilteritinib suppressed the autophosphorylation of ALK in EML4-ALK-expressing Ba/F3 cells (Fig. 1b and Supplementary Fig. 1). […] As well as Ba/F3 cell model, we verified the activity of gilteritinib to H3122 cell line that is EML4-ALK-positive NSCLC cells. […] Then, the inhibitory concentration of gilteritinib is matched between ALK phosphorylation and its downstream signals. […] Further, using the phosphoproteomics data, kinase substrate-enrichment analysis (KSEA) predicted activate kinase candidates as potential gilteritinib targets and identified ALK as the most likely regulated protein (Fig. 1e, Supplementary Figs. 3 and 4, and Supplementary Table 2). To establish Ba/F3 cells expression WT or mutant EML4-ALK, TPM3-NTRK1, and CD74-ROS1 fusion proteins, pLenti6.3 vectors containing the cDNA of these fusion oncogenes were transfected into 293FT cells using packaging plasmids (ViraPower) for lentivirus production. Ba/F3 cells were infected using lentivirus-containing medium supplemented with polybrene (8 μg/ml), and after 24 h of incubation, the infected cells were selected using 7 μg/ml blasticidin (Invitrogen) for 1 week. After selection, each EML4-ALK-, TPM3-NTRK1-, and CD74-ROS1-expressing cell line was cultured in D-10 without IL-3. […] To stablise H3122, JFCR-028-3, MCC-003 cells expression WT or mutant EML4-ALK, KRAS G12C, cells were infected using lentivirus-containing medium supplemented with polybrene (8 μg/ml). After 24 h of incubation, the infected cells were selected using 7 μg/ml blasticidin for H3122, JFCR028-3, and 10 μg/ml for MCC-003, respectively. To stablise H3122 cells expression AXL, pHAGE-AXL vector (purchased from addgene) was transfected into 293FT cells using packaging plasmids for lentivirus production. H3122 cells were infected using lentivirus-containing medium supplemented with polybrene (8 μg/ml), and after 24 h of incubation, EGFP-positive cells were sorted using FACSMelody (BD Bioscience, San Jose, CA, USA). To stablise NIH3T3 oncogene-expressing cells, cells were infected using lentivirus-containing medium supplemented with polybrene (8 μg/ml), and after 24 h of incubation, the infected cells were selected using 2 μg/ml blasticidin for 1 week.

The next series concerns MCC-003. Nature of the series: cells. Details: CellTiter-Glo viability of fusion-positive human cancer cell lines. Conditions: 72 h.
The subject of the next series is KARPAS299. Nature of the series: cells. The arrangement: CellTiter-Glo viability of fusion-positive human cancer cell lines. Conditions: Homo sapiens, KARPAS-299, 72 h.
A further series has as its system JFCR-018-1. Nature of the series: cells. Conditions: 72 h. The arrangement: CellTiter-Glo viability of fusion-positive human cancer cell lines.
The next series deals with JFCR-028-3. Nature of the series: cells. The arrangement: CellTiter-Glo viability of fusion-positive human cancer cell lines. Conditions: 72 h.
Another series deals with H2228. Nature of the series: cells. The arrangement: CellTiter-Glo viability of fusion-positive human cancer cell lines. Conditions: Homo sapiens, NCI-H2228, 72 h.
A further series concerns H3122. Nature of the series: cells. Details: CellTiter-Glo viability of fusion-positive human cancer cell lines. Conditions: Homo sapiens, NCI-H3122, 72 h.
The nature of another series: in vitro. The arrangement: CellTiter-Glo viability of parental Ba/F3 cells with IL-3 (counter-screen). To be noted: mouse, parental ba/f3 cells +il-3; with IL-3; read-out: IC50 parental Ba/F3 (+IL-3). On the procedure: To identify drugs that can overcome these mutations, we screened our focused 90-inhibitor library using Ba/F3 cells expressing EML4-ALK I1171N + F1174I and I1171N + L1198H. At a concentration of 50 nM, gilteritinib suppressed the viability of both wild-type (WT) and compound mutant Ba/F3 cells (Fig. 1a). Since gilteritinib has reported as multi-kinase inhibitor, we first evaluated whether the ALK inhibitory efficacy of gilteritinib is driven by on-target activity or not. As a result of western blot analysis, gilteritinib suppressed the autophosphorylation of ALK in EML4-ALK-expressing Ba/F3 cells (Fig. 1b and Supplementary Fig. 1). […] As well as Ba/F3 cell model, we verified the activity of gilteritinib to H3122 cell line that is EML4-ALK-positive NSCLC cells. […] Then, the inhibitory concentration of gilteritinib is matched between ALK phosphorylation and its downstream signals. […] Further, using the phosphoproteomics data, kinase substrate-enrichment analysis (KSEA) predicted activate kinase candidates as potential gilteritinib targets and identified ALK as the most likely regulated protein (Fig. 1e, Supplementary Figs. 3 and 4, and Supplementary Table 2).  Fig. 1 Identification of gilteritinib as an inhibitor of ALK-rearranged cancer cells. a Relative cell viability of parental (with IL-3), EML4-ALK wild-type (WT), EML4-ALK I1171N + F1174I, and EML4-ALK I1171N + L1198H Ba/F3 cells treated with 50 nM of the indicated inhibitors. Cell viability was analyzed using the CellTiter-Glo assay and calculated relative to the viability of dimethyl sulfoxide-treated Ba/F3 cells. b The suppression of phospho-ALK in I1171N + F1174I, I1171N + L1198H mutation-expressing Ba/F3 cells was evaluated using western blotting. Cells were treated with the indicated concentrations of gilteritinib for 3 h (n = 2). c The suppression of phospho-ALK and its downstream signals in H3122 parental cells and I1171N + F1174I compound mutation-expressing cells were evaluated using western blotting. […] N = 3 independent samples examined over three independent experiments and representative experiment data are presented as mean values ± SD. e Volcano plot displaying the −log10 (p-value) versus log2 (gilteritinib treatment/DMSO treatment) for all quantified phosphopeptides. The red diamond indicates phospho-ALK.

Molecules are shown by their SMILES. Where two headings read alike, the source gives them in different places.

Regarding `Cc1cc(Nc2ncc(Cl)c(Nc3ccccc3S(=O)(=O)C(C)C)n2)c(OC(C)C)cc1C1CCNCC1` [Ceritinib], the IC50 in the series with EML4-ALK WT turned out to be […]; with MCC-003 (read-out: Ceritinib IC50) it was 0.074 ± 0.022 µM; in the series on KARPAS299 (read-out: Ceritinib IC50) it was 0.016 ± 0.0069 µM; in the series with JFCR-018-1 (read-out: Ceritinib IC50), 0.03 ± 0.003 µM; in the series on JFCR-028-3 (read-out: Ceritinib IC50) it was 0.012 ± 0.0033 µM; in the series on H2228 (read-out: Ceritinib IC50) it was 0.01 ± 0.0036 µM. The IC50 in the series on H3122 (read-out: Ceritinib IC50) was 0.015 ± 0.0021 µM. For the same molecule, in “in vitro”, the CC50 at 72 h was 0.623 ± 0.033 µM.

Regarding `CCc1cc2c(cc1N1CCC(N3CCOCC3)CC1)C(C)(C)c1[nH]c3cc(C#N)ccc3c1C2=O` [alectinib], the IC50 is […] in the series with EML4-ALK WT, 0.765 ± 0.097 µM in the series on MCC-003 (read-out: Alectinib IC50), 0.043 ± 0.0075 µM in the series on KARPAS299 (read-out: Alectinib IC50) and 0.0038 ± 0.0012 µM with H2228 (read-out: Alectinib IC50). In addition, in “in vitro”, the CC50 at 72 h was determined as 0.899 ± 0.012 µM.

With `C[C@@H](Oc1cc(-c2cnn(C3CCNCC3)c2)cnc1N)c1c(Cl)ccc(F)c1Cl` [Crizotinib], the IC50 was determined as […] with EML4-ALK WT, 0.051 ± 0.0053 µM in the series with KARPAS299 (read-out: Crizotinib IC50), 0.136 ± 0.014 µM in the series on JFCR-018-1 (read-out: Crizotinib IC50) and 0.028 ± 0.014 µM with H2228 (read-out: Crizotinib IC50). Further, the CC50 at 72 h in “in vitro” came to 0.371 ± 0.05 µM.

Turning to `COc1cc(N2CCC(N3CCN(C)CC3)CC2)ccc1Nc1ncc(Cl)c(Nc2ccccc2P(C)(C)=O)n1` [Brigatinib], the concentration for half-maximal inhibition (IC50) in the series with EML4-ALK WT stood at […]; in the series on MCC-003 (read-out: Brigatinib IC50) it was 0.063 ± 0.011 µM; with KARPAS299 (read-out: Brigatinib IC50) it was 0.0071 ± 0.002 µM; in the series with JFCR-018-1 (read-out: Brigatinib IC50), 0.0077 ± 0.00046 µM; in the series on JFCR-028-3 (read-out: Brigatinib IC50) it was 0.0062 ± 0.0015 µM; in the series with H2228 (read-out: Brigatinib IC50), 0.0035 ± 0.001 µM. For the same molecule, in the series with H3122 (read-out: Brigatinib IC50), the IC50 came out at 0.0079 ± 0.0037 µM. Besides, the CC50 at 72 h in “in vitro” was 0.578 ± 0.113 µM.
